The experiment concerns the target T1, SF9 affinity purified rat FPT (Rattus norvegicus, UniProt Q02293+Q04631).
T1 construct: made in house; host or cells: Sf9 insect cells
Description: PFT (farnesyl protein transferase) inhibitory activity, radiolabeled farnesyl pyrophosphate / biotinyl peptide bead assay. The settings on record: read-out: FTase, IC50. Type of experiment: biochemical. The method, then: The protein:farnesyl transferase (PFT) or farnesyl protein transferase (FPT) inhibitory activity of compounds of the present invention were assayed in HEPES buffer (pH 7.4) containing 5 mM potassium phosphate and 20 μM ZnCl2. The solution also contained 5 mM DTT (dithiothreitol), 5 mM MgCl2, and 0.1% PEG 8000. Assays were performed in 96 well plates (Wallec) and employed solutions composed of varying concentrations of a compound of the present invention in 10% DMSO (dimethylsulfoxide). Upon addition of both substrates, radiolabeled farnesyl pyrophosphate ([1^3H], specific activity 15-30 Ci/mmol, final concentration 134 nM) and (biotinyl)-Ahe-Thr-Lys-Cys-Val-Ile-Met ([3aS[3a alpha, 4 beta, 6a alpha]-hexahydro-2-oxo-1H-thieno[3,4-d]imidazole-5-pentanoic acid]-[7-aminoheptanoic acid]-Thr-Lys-Cys-Val-Ile-Met) (Ahe is 7-aminoheptanoic acid, Thr is threonine, Lys is lysine, Cys is cysteine, Val is valine, Ile is isoleucine, and Met is methionine) (final concentration 0.2 μM), the enzyme reaction was started by addition of SF9 affinity purified rat FPT. After incubation at 30° C. for 30 minutes, the reaction was terminated by diluting the reaction 2.5-fold with a stop buffer containing 1.5 M magnesium acetate, 0.2 M H3PO4, 0.5% BSA (bovine serum albumin), and strepavidin beads (Amersham) at a concentration of 1.3 mg/mL. After allowing the plate to settle for 30 minutes at room temperature, radioactivity was quantitated on a microbeta counter (Model 1450, Wallec). The assay was also carried out without 5 mM potassium phosphate.

Setting [1] is: average of two tests unless n is given in parentheses.
The mark [2] stands for this setting: Examples 56-74, parallel synthesis array: single test, values adjusted to account for the purity of the sample.

SMILES strings stand for the structures. pIC50: −log10 of the molar value. Counter-ions that a name gives are not always drawn. Like-named read-outs stand apart in the source and are kept apart here.

Broadly, the pIC50 is the IC50 on a negative log10 scale, so that one unit is a factor of ten.

`O=C1CCCc2cc(OC(Cn3ccnc3)c3ccccc3)ccc21` (stereo not drawn) [Example 80, 6-[2-(1H-1-Imidazolyl)-1-phenylethoxy]-1,2,3,4-tetrahydro-1-naphthalenone]: the pIC50 under setting [1] is 7.14.

As to `O=C1/C(=C/c2cc(Cl)cc(Cl)c2)CCc2cc(OCCn3ccnc3)ccc21` [Example 64, 2-[(E)-1-(3,5-Dichlorophenyl)methylidene]-6-[2-(1H-1-imidazolyl)ethoxy]-1,2,3,4tetrahydro-1-naphthalenone], the pIC50 under setting [2] was 6.24.

`O=C1CCCc2cc(OCCn3ccnc3)ccc21` [Example 1, 6-(2-Imidazole-1-yl-ethoxy)-3,4-dihydro-2H-naphthalen-1-one]: the pIC50 under setting [1] was 5.70.

As for `O=C1/C(=C/c2ccc(I)cc2)CCc2cc(OCCn3ccnc3)ccc21` [Example 70, 6-[2-(1H-1-Imidazolyl)ethoxy]-2-[(E)-1-(4-iodophenyl)methylidene]-1,2,3,4-tetrahydro-1-naphthalenone], under setting [2], the pIC50 was 6.49.

`O=C1/C(=C/c2cccc(Cl)c2)CCc2cc(OCCn3ccnc3)ccc21` [Example 57, 2-[(E)-1-(3-Chlorophenyl)methylidene]-6-[2-(1H-1-imidazolyl)ethoxy]-1,2,3,4-tetrahydro-1-naphthalenone]: under setting [2], the negative-log IC50 (pIC50) is 6.38.

For `COc1cc(OC)c(/C=C2\CCc3cc(OCCn4ccnc4)ccc3C2=O)c(OC)c1` [Example 68, 6-[2-(1H-1-Imidazolyl)ethoxy]-2-[(E)-1-(2,4,6-trimethoxyphenyl)methylidene]-1,2,3,4-tetrahydro-1-naphthalenone], the negative logarithm of the IC50 (pIC50) under setting [2] is 6.23.

For `COc1cccc(/C=C2\CCc3cc(OCCn4ccnc4)ccc3C2=O)c1OC` [Example 66, 2-[(E)-1-(2,3-Dimethoxyphenyl)methylidene]-6-[2-(1H-1-imidazolyl)ethoxy]-1,2,3,4-tetrahydro-1-naphthalenone], the negative-log IC50 (pIC50) under setting [2] was 5.74.

`Cc1cccc(/C=C2\CCc3cc(OCCn4ccnc4)ccc3C2=O)c1` [Example 74, 6-[2-(1H-1-Imidazolyl)ethoxy]-2-[(E)-1-(3-methylphenyl)methylidene]-1,2,3,4-tetrahydro-1-naphthalenone]: the pIC50 under setting [2] is 5.72.

For the compound `O=C1C(=Cc2ccccn2)CCc2cc(OCCn3ccnc3)ccc21` [Example 3, 6-(2-Imidazole-1-yl-ethoxy)-2-pyridin-2-ylmethylene-3,4-dihydro-2H-naphthalen-1-one], the pIC50 under setting [1] is 5.62.

For `O=C(O)c1ccc(C=C2CCc3cc(OCCc4c[nH]cn4)ccc3C2=O)cc1` [Example 35, 4-{6-[2-(1H-Imidazole-4-yl)-ethoxy]-1-oxo-3,4-dihydro-1H-naphthalen-2-ylidenemethyl}-benzoic acid, ditrifluoroacetate], the pIC50 under setting [1] was 5.70.

With `CC(C)(C)c1ccc(/C=C2\CCc3cc(OCCn4ccnc4)ccc3C2=O)cc1` [Example 72, 2-(E)-1-[4-(tert-Butyl)phenyl]methylidene-6-[2-(1H-1-imidazolyl)ethoxy]-1,2,3,4-tetrahydro-1-naphthalenone], the negative logarithm of the IC50 (pIC50) under setting [2] is 5.92.

In the case of `CN(C)c1ccc(/C=C2\CCc3cc(OCCn4ccnc4)ccc3C2=O)cc1` [Example 71], the pIC50 under setting [2] is 6.96.

As to `O=C(O)c1ccc(C=C2CCc3cc(OCCc4c[nH]cn4)ccc3C2=O)s1` [Example 38, 5-{6-[2-(1H-Imidazol-4-yl)-ethoxy]-1-oxo-3,4-dihydro-1H-naphthalen-2-ylidenemethyl}-thiophene-2-carboxylic acid], the pIC50 under setting [1] is 5.37.

Consider `O=C1/C(=C/c2cccs2)COc2cc(OCCn3ccnc3)ccc21` [Example 52, 7-[2-(1H-1-Imidazolyl)ethoxy]-3-[(E)-1-(2-thienyl)methylidene]4-chromanone], for which the pIC50 under setting [1] was 6.66.

In the case of `CC(C)(CNC(=O)CON=C1CCCc2cc(OCCn3ccnc3)ccc21)c1ccccc1` [Example 55, 2-[6-(2-Imidazol-1-yl-ethoxy)-3,4-dihydro-2H-naphthalen-1-ylideneaminooxy]-N-(2-methyl-2-phenyl-propyl)-acetamide], under setting [1], the pIC50 is 6.22.

With `CCN(CC)CCOc1ccc(C=C2CCc3cc(OCCn4ccnc4)ccc3C2=O)cc1` [Example 8, 2-[4-(2-Diethylamino-ethoxy)-benzylidene]-6-(2-imidazole-1-yl-ethoxy)-3,4-dihydro-2H-naphthalen-1-one], the pIC50 under setting [1] is 4.92.

Regarding `O=C1/C(=C/c2ccccc2C(F)(F)F)CCc2cc(OCCn3ccnc3)ccc21` [Example 67, 6-[2-(1H-1-Imidazolyl)ethoxy]-2-(E)-1-[2-(trifluoromethyl)phenyl]methylidene-1,2,3,4-tetrahydro-1-naphthalenone], under setting [2], the pIC50 is 6.15.

`O=C1C(=Cc2ccccc2)CCc2cc(OCCn3ccnc3)ccc21` [Example 9, 2-Benzylidene-6-(2-imidazole-1-yl-ethoxy)-3,4-dihydro-2H-naphthalen-1-one]: under setting [1], the pIC50 was 6.62.

Consider `COc1ccc(OC)c(/C=C2\CCc3cc(OCCn4ccnc4)ccc3C2=O)c1` [Example 65], for which the pIC50 under setting [2] is 6.20.

With `O=C1CCCc2cc(OCCc3c[nH]cn3)ccc21` [Example 27, 6-[2-(1H-Imidazole4-yl)-ethoxy]-3,4-dihydro-2H-naphthalen-1-one, monohydrochloride], under setting [1], the pIC50 was 5.75.

As for `NC(=O)c1ccc(C=C2CCc3cc(OCCc4c[nH]cn4)ccc3C2=O)cc1` [Example 33, 4-{6-[2-(1H-Imidazole-4-yl)-ethoxy]-1-oxo-3,4-dihydro-1H-naphthalen-2-ylidenemethyl}-benzamide, monohydrochloride], the pIC50 under setting [1] is 5.14.

Take `O=C1/C(=C/c2ccc(Cl)cc2)CCc2cc(OCCn3ccnc3)ccc21` [Example 58, 2-[(E)-1-(4-Chlorophenyl)methylidene]-6-[2-(1H-1-imidazolyl)ethoxy]-1,2,3,4-tetrahydro-1-naphthalenone]: the pIC50 under setting [2] was 6.77.

`Cc1nccn1CCOc1ccc2c(c1)CCCC2=O` [Example 2, 6-[2-(2-Methyl-imidazole-1-yl)-ethoxy]-3,4-dihydro-2H-naphthalen-1-one]: under setting [1], the negative logarithm of the IC50 (pIC50) is 5.08.

With `O=C1/C(=C/c2ccc3c(c2)OCO3)CCc2cc(OCCn3ccnc3)ccc21` [Example 59, 2-[(E)-1-(1,3-Benzodioxol-5-yl)methylidene]-6-[2-(1H-1-imidazolyl)ethoxy]-1,2,3,4-tetrahydro-1-naphthalenone], the pIC50 under setting [2] was 6.68.

Consider `COc1cccc(/C=C2\CCc3cc(OCCn4ccnc4)ccc3C2=O)c1` [Example 73, 6-[2-(1H-1-Imidazolyl)ethoxy]-2-[(E)-1-(3-methoxyphenyl)methylidene]-1,2,3,4-tetrahydro-1-naphthalenone], for which the pIC50 under setting [2] was 5.94.

In the case of `O=C1/C(=C/c2c(Cl)cccc2Cl)CCc2cc(OCCn3ccnc3)ccc21` [Example 62, 2-[(E)-1-(2,6-Dichlorophenyl)methylidene]-6-[2-(1H-1-imidazolyl)ethoxy]-1,2,3,4-tetrahydro-1-naphthalenone], the negative-log IC50 (pIC50) under setting [2] was 6.27.

Consider `O=C1/C(=C/c2ccccc2Cl)CCc2cc(OCCn3ccnc3)ccc21` [Example 56, 2-[(E)-1-(2-Chlorophenyl)methylidene]-6-[2-(1H-1-imidazolyl)ethoxy]-1,2,3,4-tetrahydro-1-naphthalenone], for which the pIC50 under setting [2] is 6.44.

`O=C1/C(=C/c2ccc(Cl)c(Cl)c2)CCc2cc(OCCn3ccnc3)ccc21` [Example 63, 2-[(E)-1-(3,4-Dichlorophenyl)methylidene]-6-[2-(1H-1-imidazolyl)ethoxy]-1,2,3,4-tetrahydro-1-naphthalenone]: under setting [2], the pIC50 was 6.05.

`O=C1C(=Cc2cccs2)CCc2cc(OC(Cn3ccnc3)c3ccccc3)ccc21` (stereo not drawn) [Example 81, 6-(2-Imidazol-1-yl-1-phenyl-ethoxy)-2-thiophen-2-ylmethylene-3,4-dihydro-2H-naphthalen-1-one]: the negative logarithm of the IC50 (pIC50) under setting [1] was 7.43.

In the case of `O=C1C(=Cc2ccc(Cl)s2)CCc2cc(OCCc3c[nH]cn3)ccc21` [Example 36, 2-(5-Chloro-thiophen-2-ylmethylene)-6-[2-(1H-imidazole-4-yl)-ethoxy]-3,4-dihydro-2H-naphthalen-1-one, hydrochloride], under setting [1], the negative logarithm of the IC50 (pIC50) was 5.46.

Consider `COc1ccc(/C=C2\CCc3cc(OCCn4ccnc4)ccc3C2=O)c(OC)c1OC` [Example 69, 6-[2-(1H-1-Imidazolyl)ethoxy]-2-[(E)-1-(2,3,4-trimethoxyphenyl)methylidene]-1,2,3,4-tetrahydro-1-naphthalenone], for which the pIC50 under setting [2] was 5.89.

Regarding `O=C1/C(=C/c2cccc(Cl)c2Cl)CCc2cc(OCCn3ccnc3)ccc21` [Example 61, 2-[(E)-1-(2,3-Dichlorophenyl)methylidene]-6-[2-(1H-1-imidazolyl)ethoxy]-1,2,3,4-tetrahydro-1-naphthalenone], the pIC50 under setting [2] was 6.24.

Regarding `O=C1/C(=C/C2CCCCC2)CCc2cc(OCCn3ccnc3)ccc21` [Example 45, 2-[(E)-1-Cyclohexylmethylidene]-6-[2-(1H-1-imidazolyl)ethoxy]-1,2,3,4-tetrahydro-1-naphthalenone, hydrochloride], the pIC50 under setting [1] was 5.24.

The values above are taken from patent publication US6528535B2, “Bicyclic inhibitors of protein farnesyl transferase” (Warner-Lambert Company, priority 1997, dated 2003).
